Marks after values point to notes of the source that are not given here. No end group written: not given here.
Experiments:
anti-SRBC antibody = assay: Sheep Red Blood Cell (SRBC) hemolysis test, anti-SRBC antibody formation; type: in vivo, BALB/c mice; settings: SRBC on day 12, IFN-γ and IL-2 groups 3×10^5 IU/kg/day, X ± SD
Procedure: Sheep red blood cells (SRBC) were prepared by collecting blood from cervical vein and put into a sterile flask with glass beads. The flask was shaken for 3 minutes and the blood then mixed with Alsever solution (glucose 2.05 g, NaCl 0.4 g, […] 0.8 g, adjust to 100 ml with distilled water) and stored at 4° C. Immediately before use, samples were centrifuged at 130 g, 5 minutes to collect the SRBC. The cells were washed two times by re-suspension and centrifugation in normal saline. Then the cell pellet was collected by centrifugation at 180 g for 10 minutes and re-suspended in saline to make the final working SRBC suspension, 2% (v/v).
Complement was prepared by adding 10 volumes of fresh Cavy serum into one volume centrifuge packed SRBC, and then gently shaking for 30 minutes at 4° C. The SRBC was removed by centrifugation at 200 g for 10 minutes. 10 volumes of normal saline were added to obtain the working complement solution.
The test substances were administered as described in section 1.1, plus intraperitoneal injection 0.2 ml SRBC per mouse on day 12. On the day after the last test substance administration (day 16), blood was collected from the eye canthus and left at room temperature for one hour for serum exudation. After centrifugation at 200 g for 10 minutes, the serum was diluted by 500 times with normal saline.
To 1 ml diluted mouse serum of each mouse, 0.5 ml SRBC suspension was added. Ice cold. Then 1 ml working complement solution was added and incubated at 37° C. water bath for 10 minutes. Reactions were terminated by ice cold. Samples were then centrifuged at 200 g for 10 minutes to obtain the supernatant.
To 1 ml of this supernatant, 3 ml Drabkin solution was added and left at room temperature for 10 minutes. OD540nm was obtained.
Reference OD540nm was obtained by mixing 0.25 ml SRBC suspension with Drabkin solution to 4 ml and placed at room temperature for 10 minutes before OD540nm was taken. Sample serum index=(OD540nm of test sample[…]reference OD540nm)×500 3. The Effect of Peptides on the Phagocytosis Function of Mononuclear Phagocyte and the Weight of Immune Organ^[8,9].

T lymphocyte [1] = assay: T lymphocyte IL-2 secretion test (HT-2 cell bioassay of ConA supernatant); type: in vivo, BALB/c mice; settings: IFN-γ and IL-2 groups 3×10^5 IU/kg/day, X ± SD
Procedure: (§1) The above substances were all dissolved in 0.5 ml saline and injected intraperitoneal (i.p.) for 15 continuous days, once per day.
(§2) Spleen cells of density 1×10^6/ml were placed onto a 96 wells cell culture plate, 100 μl/well, three parallel wells each of the assay sample and control sample per mouse. To the assay wells, 100 μl/well ConA of 100 μg/ml in RPMI-1640 was added, and 100 μl/well plain RPMI-1640 was used for the controls. The cells were incubated for 66 hrs at 37° C., 5% CO2. The cells were then pelleted by centrifugation at 150 g for 10 minutes.
HT-2 cells at log phase were collected by centrifugation at 150 g for 10 minutes, and washed three times with cold Hank's solution by re-suspension and centrifugation. The collected HT-2 cells were re-suspended in RPMI-1640 and incubated at 37° C., 5% CO2 for 30 minutes. The cells were further washed twice with RPMI-1640 by re-suspension and centrifugation, and re-suspended to final concentration of 2×10^5/ml with RPMI-1640.
rIL-2 was diluted to the following concentration with RPMI-1640: 500 IU/ml, 250 IU/ml, 125 IU/ml, 62.5 IU/ml, 31.25 IU/ml, and […].
A 96 well cell culture plate was set up with three parallel wells per combination:
Negative control: 100 μl RPMI-1640+100 μl HT-2 cell suspension
rIL-2 standard: 100 μl rIL-2 solution+100 μl HT-2 cell suspension
Assay well: 100 μl diluted supernatant+100 μl HT-2 cell suspension
The plate was incubated at 37° C., 5% CO2 for 68 hours, then centrifuged at 150 g for 15 minutes and the supernatant removed. 100 μl 0.5 mg/ml MTT in RPMI-1640 without phenolsulfonphthalein was added into each well. After shaking for 3-4 minutes to re-suspend the cells, continue to incubate for another 4 hours. Samples were then centrifuged at 150 g for 15 minutes and the supernatant was removed. To each well, 120 μl 40 mM HCl-2-propanol was added, mixed for 3-4 minutes and OD analyzed at 570 nm, referenced at 630 nm with an ELISA plate reader.
The average OD of the three parallel wells of each dilution was taken and plotted against concentration on a semi-log paper, concentration on the X-axis. The concentration at 50% OD saturation was obtained for both the testing supernatant and rIL-2.

T lymphocyte [2] = assay: T lymphocyte transformation test (ConA, MTT) on spleen cells of treated mice; type: in vivo, BALB/c mice; set-up: key: OD of assay wells divided by OD of control wells; settings: IFN-γ and IL-2 groups 3×10^5 IU/kg/day, X ± SD
Procedure: as §1
(§3) Ten mice per group. The day after the last test substance administration, the mice were sacrificed by cervical dislocation. The spleen was isolated aseptically and manually dispersed in cold D-Hank's solution using an injection needle. The dispersed cell suspension was further sieved through a 100 gauge 150 μm diameter stainless steel sieve. After centrifugation at 200 g for 10 minutes, the supernatant was discarded. The cell pellet was re-suspended in 10 volume of Tris-NH4Cl buffer and then kept standing still for 10 minutes at room temperature. The suspended cells were collected by centrifugation at 150 g for 10 minutes. The cells were washed 2-4 times with cold D-Hank's solution by re-suspending and collecting by centrifugation with condition as described above. The washed cells were then diluted to the desired cell densities by RPMI-1640 culture medium, containing 10% fetal bovine serum.
as §2
50 μl/well MTT of 1 mg/ml in RPMI-1640 was added to the cell pellet and the cells re-suspended by shaking for 2 minutes. The incubation was continued for 4 hours. The supernatant was discarded after centrifugation at 150 g for 10 minutes. 120 μl 40 mM HCl-2-propanol was added to the cell pellet and shaken for 3 minutes. to obtain OD570nm of each well referenced at 630 nm. An ELISA reader was used
Each mouse formed three assay wells and three control wells. The Stimulation Index (SI) of each mouse was obtained by first deriving the average OD of the three parallel wells, then dividing the value of the assay wells by the control wells.

[3] = immunity organ weight test (thymus gland index, spleen index); type: in vivo, BALB/c mice; settings: X ± SD
Procedure: as §1
(§4) One day after the last test substance administration (day 16), the liver, spleen, and thymus gland were separated and blotted dry with filter paper and weighed. The phagocytosis index α was calculated as below: α=(^3√K)(W÷WLS) key: W: body weight WLS: weight of liver plus spleen Thymus gland index(%)=(thymus weight/body weight)×100% Spleen index(%)=(spleen weight/body weight)×100%

mononuclear phagocyte = assay: carbon particle clearance test, phagocytotic activity of mononuclear phagocyte; type: in vivo, BALB/c mice; set-up: key: α = (cube root of K)×(body weight ÷ liver+spleen weight); settings: IFN-γ and IL-2 groups 3×10^5 IU/kg/day, X ± SD
Procedure: On the next day after the last test substance administration (day 16), the mice were injected with […] body weight India ink (5 times dilution with normal saline) from the tail vein.
One minute and five minutes after Indian ink injection, 20 μl blood was obtained from the eye can thus with a heparinized tubing. The blood was mixed with 2 ml 0.1% w/v Na2CO3 and then OD680nm obtained. The outline clear index K was calculated by the following formula: K=(lgA1−lgA2)÷(t2−t1) Key: A1: OD680nm at first minute A2: OD680nm at fifth minute t2: 5 minutes […]
as §4

T lymphocyte [4] = test system: T lymphocyte; set-up: species or system BALB/c mice; settings: mouse, in vivo, ip
NK cell = NK cell cytotoxicity activity test (YAC-1 target cells, MTT) on spleen cells of treated mice; type: in vivo, BALB/c mice; settings: IFN-γ and IL-2 groups 3×10^5 IU/kg/day, X ± SD
Procedure: as §1, §3
Mice spleen cells were prepared to 4×10^6/ml as described in section 1.1 above. Target cells YAC-1 were brought to log phase and adjusted to 1×10^5/ml. Using a 96 wells cell culture plate, 100 μl mouse spleen cells and 100 μl culture medium were added to the control well containing only the spleen cells; 100 μl target cells and 100 μl culture medium were added to the control well containing only target cells; 100 μl mouse spleen cells and 100 μl target cells were added to the NK activity assay well. Three parallel sets of the above were prepared per mouse.
Samples were centrifuged at 150 g for 10 minutes to collect the cells. The supernatant was discarded and 50 μl/well MTT of 1 mg/ml was added. The reaction mixture was then shaken for 2 minutes, and incubated at 37° C., 5% CO2 for 4 hours. The supernatant was discarded after centrifugation at 150 g for 10 minutes. 120 μl 40 mM HCl-2-propanol was added and shaken for 3 minutes. An ELISA reader was used to obtain OD570nm of each well referenced at 630 nm.

[5] = peptide 5 μg/kg/day i.p. 15 days
[6] = peptide 500 μg/kg/day i.p. 15 days
[7] = peptide 0.5 μg/kg/day i.p. 15 days
[8] = peptide 50 μg/kg/day i.p. 15 days
[9] = peptide 5 μg/kg/day i.p. 15 days, IFN-γ and IL-2 groups 3×10^5 IU/kg/day
[10] = peptide 0.5 μg/kg/day i.p. 15 days, IFN-γ and IL-2 groups 3×10^5 IU/kg/day
[11] = peptide 50 μg/kg/day i.p. 15 days, IFN-γ and IL-2 groups 3×10^5 IU/kg/day
[12] = peptide 500 μg/kg/day i.p. 15 days, IFN-γ and IL-2 groups 3×10^5 IU/kg/day

Substance | anti-SRBC antibody formation (sample serum index) (anti-SRBC antibody; [5]) | anti-SRBC antibody formation (sample serum index) (anti-SRBC antibody; [6]) | activity of T lymphocyte in secreting IL-2 (T lymphocyte [1]; [5]) [IU] | stimulation index (T lymphocyte transformation) (T lymphocyte [2]; [6]) | weight of spleen (spleen index) [3, 6] [%] | anti-SRBC antibody formation (sample serum index) (anti-SRBC antibody; [7]) | anti-SRBC antibody formation (sample serum index) (anti-SRBC antibody; [8]) | weight of thymus gland (thymus gland index) [3, 9] | activity of T lymphocyte in secreting IFN (T lymphocyte [4]) | NK cell cytotoxic activity (NK cell activity index) (NK cell; [6]) [%] | weight of thymus gland (thymus gland index) [3, 10] | weight of thymus gland (thymus gland index) [3, 11] | weight of thymus gland (thymus gland index) [3, 12] [%] | other results
Ala Gly Asp Asp Ala Pro Arg Ala Val Phe (AGDDAPRAVF; listed as Sus scrofa) [CMS007] | 122 ± 12*^@^ Unit | 69 ± 17*^@ Unit | 64 ± 12 | 1.6 ± 0.1 | 0.32 ± 0.05 |  |  |  |  |  |  |  |  | activity of T lymphocyte in secreting IL-2 (T lymphocyte [1]; [6]): 86 ± 15*^ IU; stimulation index (T lymphocyte transformation) (T lymphocyte [2]; [5]): 1.7 ± 0.1
LRVAPEEHPVL [CMS013] | 93 ± 28*^@ Unit | 80 ± 16*^@ Unit |  |  | 0.44 ± 0.07 | 7 ± 1* Unit | 70 ± 9*^@ Unit | 0.21 ± 0.05 % | 154 ± 15*^@^ IU | 84 ± 9 |  |  |  | phagocytotic index (mononuclear phagocyte; [5]): 6.7 ± 0.2
MATAASSSSL [CMS021] | 82 ± 30*^@ Unit |  |  | 1.6 ± 0.1 | 0.36 ± 0.04 | 57 ± 9*^@ Unit | 94 ± 20*^@^ Unit | 0.20 ± 0.06 % | 143 ± 17*^@^ IU |  |  |  |  | NK cell cytotoxic activity (NK cell activity index) (NK cell; [8]): 88 ± 12*^@^ %
Phe Glu Pro Ser Phe (FEPSF; listed as Sus scrofa) [CMS028] | 121 ± 48*^@^ Unit |  |  |  |  | 18 ± 5* Unit |  | 0.28 ± 0.06*^@^ % | 96 ± 13 IU | 90 ± 5 | 0.20 ± 0.06 % | 0.18 ± 0.04 % | 0.19 ± 0.02 | NK cell cytotoxic activity (NK cell activity index) (NK cell; [7]): 79 ± 3 %
VGMGQKDSYV [CMS020] | 89 ± 24*^@ Unit | 155 ± 35*^@^ Unit | 63 ± 11 |  |  | 10 ± 3* Unit |  | 0.24 ± 0.07*^@^ % |  |  | 0.23 ± 0.05*^@^ % | 0.27 ± 0.03*^@^ % | 0.19 ± 0.04 | phagocytotic index (mononuclear phagocyte; [6]): 6.4 ± 0.6; weight of spleen (spleen index) [3, 10]: 0.68 ± 0.09*^@^ %; NK cell cytotoxic activity (NK cell activity index) (NK cell; [5]): 91 ± 6 %
